From patent US11325937B2, “Glycoside compound and preparation method therefor, composition, application, and intermediate” (SHANGHAI HUTCHISON PHARMACEUTICALS LIMITED, priority 2018, dated 2022)

How the values were obtained:
[1] = system: rats with middle cerebral artery occlusion (MCAO); assay: Acute cerebral infarction model in rats with middle cerebral artery occlusion (MCAO); format: in vivo, male SD rats; details: MCAO
Excerpt: After obtaining the active molecules that can promote the expression of VEGF-A mRNA in the animal model of inflammatory angiogenesis, a rat model of cerebral infarction was used for further verification. Following the method as described in Longa, E. Z., Longa, E. Z., Weinstein, P. R., Carlson, S. & Commin, R. Reversible middle cerebral artery occlusion without craniectomy in rats. [J]. Stroke, 1989. 1: 84-91, an acute cerebral infarction model was established in rats with middle cerebral artery occlusion (MCAO); and following the method as described in C. dela Torre, T. Fortin, G. A. S. Park, K. S. Butler, P. Kozlowski, B. A. Pappas, H. de Socarraz, J. K. Saunders and M. T. Richard. [J]. Brain Research, 1992. 582:186-195, a chronic cerebral ischemia model was established in rats with permanent ligation of bilateral common carotid arteries (2VO). The inhibition on cerebral infarction and neuroprotection for brain injury of the active molecules screened in Effect Example 2 were verified.
The control drugs were: Edaravone (purchased from Zhejiang Shengtong Biotechnology Co., Ltd.), Clopidogrel bisulfate (purchased from Wuhan Yuancheng Gongchuang Technology Co., Ltd.), and Salvianolate (purchased from Henan Provincial People's Hospital). Clopidogrel bisulfate is a platelet aggregation inhibitor, and Edaravone is a brain protectant (free radical scavenger). The MCAO model of rats was made by the thread occlusion method. The rats used in this effect example were male SD rats weighing 280-320 grams, purchased from Shanghai SLAC Laboratory Animal Co., Ltd. Five SD (Sprague Dawley) rats in each group were administered by intraperitoneal injection, 2 h before surgery, and every 24 h after modeling.
Three days later, the brain was taken, and the rat brain was stained with TTC (2,3,5-triphenyltetrazolium chloride, to detect the cell viability) and then photographed. Infarction rate (%)=(Non-infarction area of right brain section−non-infarction area of left brain section)/total area of brain section*100%. According to t tests, *P<0.05, **P<0.01, ***P<0.001 compared with the model group (MCAO). Infarction inhibition rate (%) at different doses=(infarction rate of model group-infarction rate of treatment group)/infarction rate of model group*100%. The infarction inhibition rate at different doses was plotted, and the ED50 of the drug was calculated.
Moreover, the body weight of the rats was recorded. The rate of body weight change was calculated according to a formula: Rate of body weight change (%)=(final weight-initial weight)/[…].
Three days after the acute cerebral infarction model was established in rats with MCAO, the test rats were scored for neurological function according to the Longa nerve scoring standard.
Three days after the acute cerebral infarction model of MCAO was established in rats, the intact brain tissue was taken out, olfactory bulb and the brain tissue that is 4 mm in front of the frontal pole was removed, and the immediately adjacent brain tissue of 2 mm thick was taken for water content measurement in the brain. The water content in brain tissue is calculated by the formula: (WW−DW)/WW×100%, where WW is the wet weight and DW is the dry weight. Three days after the acute cerebral infarction model of MCAO was established in rats, the brain tissue was stained with Evans Blue (EB, a commonly used azo dye preparation) to evaluate the permeability across the blood-brain barrier (BBB), so as to evaluate the integrity of blood-brain barrier. Both experiments were tested with the optimal dose of each drug previously determined: TG-028 (5 mg/Kg), Salvianolate (20 mg/Kg), Clopidogrel bisulfate (40 mg/Kg), Edaravone (40 mg/Kg).

[2] = system: VEGF-A mRNA expression in macrophages (RAW264.7); assay: In vitro macrophage experiment: activity of compounds to promote VEGF-A mRNA expression (RT-qPCR); format: cell-based; design: Expression level of VEGF-A mRNA: unit of the concentration uncertain; details: RAW264.7 macrophages, 3 h, no drug = 1; for fold induction at 500 µM: 0.5 mM; for fold induction at 1000 µM: 1 mM; for fold induction at 2000 µM: 2 mM; for fold induction at 3000 µM: 3 mM
Excerpt: 1.1. Specific steps for activity screening: 1-10×10^6 macrophages (RAW264.7) in logarithmic growth phase were transferred to a cell culture plate. The test compounds (Compounds TG-001, TG-002, TG-003, TG-004, TG-005, TG-006, TG-007, TG-008, TG-009, TG-010, TG-011, TG-012, TG-013, TG-014, TG-015, TG-016, TG-017, TG-018, TG-019, TG-020, TG-021, TG-022, TG-023, TG-024, TG-025, TG-026, TG-027, TG-028, TG-029, TG-030, TG-031, TG-032, TG-033, TG-034, TG-035, TG-036, TG-037, TG-045, TG-039, TG-040 TG-041, TG-042, TG-043, TG-044, TG-045, TG-052, TG-053, TG-054, TG-047, TG-048, TG-046, TG-049, TG-050, TG-051, TG-055 and TG-056) were respectively diluted into various concentrations, and separately added to the cell culture plate containing macrophage. The cells were cultured for 3 h in a complete medium (RPMI 1640 medium:fetal bovine serum:tri-resistance screening agent (i.e. penicillin-streptomycin-gentamicin, Beijing Leagene Biotechnology Co., Ltd.)=89:10:1 based on volume) in a cell incubator at 37° C. and 5% CO2. The cells were lyzed by Trizol (Beijing ComWin Biotech Co., Ltd) to extract RNA, and the RNA concentration was measured using a microvolume nucleic acid and protein analyzer (Nanodrop2000c). The required volume V of RNA was calculated according to the RNA concentration, and the RNA reverse transcription reaction system was prepared according to Table 1. Then RNA reverse transcription (cDNA synthesis) (RT Easy™ I (For first-strand cDNA synthesis) Reverse Transcription Kit, Chengdu ForeGene Biotechnology Co., Ltd.) was carried out according to the conditions described in Table 2. The resulting cDNA was used to prepare a fluorescence quantitative PCR reaction solution according to Table 3. The fluorescence quantitative PCR reaction conditions were set according to Table 4, and the fluorescence quantitative PCR reaction (Real time PCR Easy™-SYBR Green Fluorescence Quantification Kit, Chengdu ForeGene Biotechnology Co., Ltd.) was performed using cDNA from the reverse transcription reaction as a template. The relative expression level 2^−ΔΔCt of the target gene was calculated from the Ct value of each sample with the blank control group as a control and β-Actin as an internal reference.
Based on the maximum level of VEGF-A mRNA expression promoted by a drug at a certain concentration, the activity of the drug was determined. The expression level of VEGF-A mRNA in macrophages was defined as 1 when no drug was added. Using a traditional Chinese medicine injection Salvianolate that is used in the treatment of Cardio-cerebrovascular disease and promotes a maximum level of VEGF-A mRNA expression of 6 in macrophages (the results are shown in Table 5) as a judgment standard, the compound promoting a maximum level of VEGF-A mRNA expression of 4 or more in macrophage was a target compound. That is, when the maximum level of VEGF-A mRNA expression in macrophages promoted by the test compound is over 4-fold higher than the expression level of VEGF-A mRNA in macrophages without the addition of the test compound, the test compound was a preliminary target compound promoting angiogenesis.

[3] = system: VEGF-A mRNA; assay: Sponge implanted animal model of inflammatory angiogenesis: VEGF-A mRNA expression; format: in vivo, male C57/BL6 mice; details: 2 weeks
Excerpt: The target pro-angiogenic compounds TG-052, TG-053, TG-054, TG-028, and TG-055 obtained in Effect Example 1 that perform well at the cellular level were further screened for the active molecules that promote VEGF-A mRNA expression in the “sponge implanted animal model” of inflammatory angiogenesis. […] This model can well reflect the expression of VEGF-A mRNA in macrophages recruited around inflammation.
A sponge implanted mouse model was established following the method as described in Zhang J, Modi Y, and Yarovinsky T, et al. Macrophage β2 integrin-mediated, HuR-dependent stabilization of angiogenic factor-encoding mRNAs in inflammatory angiogenesis. [J]. American Journal of Pathology, 2012. 180(4): 1751-1760. The mice used in the present invention was male C57/BL6 mice aged 6-8 weeks and weighing 20-25 g, purchased from Shanghai SLAC Laboratory Animal Co., Ltd, Production License No: SCXK (Shanghai) 2013-0016. The compound screened in Effect Example 1 was weighed according to the amount intended to be used in two weeks, and then mixed with a gel matrix and a solvent to prepare a sustained-release gel of the compound (see Patent Application No.: CN201610168493.9 for the details of the preparation method of the sustained-release gel and the model establishment and detection methods). The specific steps were as follows. A certain amount of the compound obtained in Effect Example 1 was weighed into a 1.5 mL EP tube, and then a certain amount of poly-L-lactic acid (PLLA) with a weight average molecular weight of less than 10,000 was weighed and mixed with the compound (at a weight ratio of the compound to PLLA of 0.5:1 to 2:1). Finally a certain amount of DMSO (less than 100 microliters) was added, spun, mixed well, and then sealed with a sealing film. After continuous ultrasonication at 200 W and 25° C. for 5 h, a sustained-release gel of the compound was obtained, which was stored at 4° C. for later use.
The prepared sustained-release gel can release the drug completely within 2 weeks. The sustained-release gel and sponge were both subcutaneously implanted in the mice at the back. After 2 weeks, the sponge was taken out, and the residual tissue and fur were removed. The sponge was transferred to a cell culture plate containing 10 mL of DMEM medium containing collagenase (Collagenase:DMEM=10 mg/10 mL), cut, and incubated for 1 h in a cell incubator. Then the culture medium containing sponge debris was filtered, and the resulting filtrate was centrifuged. The supernatant was discarded, and 500 μL of Trizol reagent was added to the pellet, and mixed uniformly by blowing. Then the liquid was transferred to a 1.5 mL EP tube, and stored at −80° C. RNA was extracted according to a conventional method, and the RNA concentration was determined using a microvolume nucleic acid and protein analyzer (Nanodrop2000c). The required volume V of RNA was calculated according to the RNA concentration, and the RNA reverse transcription reaction system was prepared according to Table 1. Then RNA reverse transcription (cDNA synthesis) was carried out according to the conditions described in Table 2. The resulting cDNA was used to prepare a fluorescence quantitative qPCR reaction solution according to Table 3. The fluorescence quantitative qPCR reaction conditions were set according to Table 4, and the fluorescence quantitative PCR reaction was performed using cDNA from the reverse transcription reaction as a template. The relative expression level 2^−ΔΔCt of the target gene was calculated from the Ct value of each sample with the blank group as a control and β-Actin as an internal reference. The expression level of VEGF-A mRNA in the cells extracted from the sponge was observed after 2 weeks. […]

[4] = Mus musculus, relative expression, read-out: Expression level of VEGF-A mRNA

Compound: COC(=O)[C@H](c1ccccc1Cl)N1CCc2sccc2C1 [Clopidogrel bisulfate, reference compound]
- ED50 ([1]; Rattus norvegicus, ip, 72 h, intraperitoneal injection, TTC staining after 3 days, read-out: ED50 for infarction inhibition rate (%)): 28.1 mg/kg

Compound: OC[C@H]1O[C@@H](OCCCCc2ccc(OCc3ccc(F)cc3)cc2)[C@H](O)[C@@H](O)[C@@H]1O [TG-051]
- fold induction at 1 µM ([2]; Mus musculus, 1 μM, relative expression 2^-ΔΔCt, read-out: Expression level of VEGF-A mRNA): 1.1
- fold induction at 100 µM ([2]; Mus musculus, 0.1 mM, relative expression, read-out: Expression level of VEGF-A mRNA): 4.49
- fold induction at 500 µM [2, 4]: 6.76
- fold induction at 1000 µM [2, 4]: 7.89
- fold induction at 2000 µM [2, 4]: 11.2
- fold induction at 3000 µM [2, 4]: 8.18

Compound: COc1ccc(CO[C@@H]2O[C@H](CO)[C@@H](O)[C@H](O)[C@H]2O)cc1 [TG-052]
- fold induction at 500 µM [2, 4]: 19.7
- fold induction at 1000 µM [2, 4]: 0.93
- fold induction at 2000 µM [2, 4]: 2.64
- fold induction at 3000 µM [2, 4]: 2.69
- fold induction at 4000 µM ([2]; Mus musculus, 4 mM, relative expression, read-out: Expression level of VEGF-A mRNA): 3.51
- increase of expression level of VEGF-A mRNA compared with blank control without drugs ([3]; 41.37 mg/kg/d, sustained-release gel, mice): about 3 times
- activity in promoting VEGF-A mRNA expression compared with Salvianolate (in words) ([3]; positive control Salvianolate 60 mg/kg/d, sponge implanted mice): comparable to that of Salvianolate

Compound: COc1cc(CCCCO[C@@H]2O[C@H](CO)[C@@H](O)[C@H](O)[C@H]2O)ccc1O [TG-057]
- Longa nerve scoring, protective effect on nerves (in words) ([1]; 5 mg/kg, FIG. 20): has a protective effect on nerves in rats after brain injury, but the effect is not as strong as that of TG-028
- effect of inhibiting cerebral infarction (in words) ([1]; 5 mg/kg, FIG. 20): has the effect of inhibiting cerebral infarction in the rats

Compound: TG-003
- Expression level of VEGF-A mRNA ([2]; 1 μM, relative expression 2^-ΔΔCt): 0.96
- Expression level of VEGF-A mRNA ([2]; 0.1 (unit uncertain), relative expression): 3.56
- Expression level of VEGF-A mRNA ([2]; 0.5 (unit uncertain), relative expression): 4.69
- Expression level of VEGF-A mRNA ([2]; 1 (unit uncertain), relative expression): 3.12
- Expression level of VEGF-A mRNA ([2]; 2 (unit uncertain), relative expression): 1.39
- Expression level of VEGF-A mRNA ([2]; 3 (unit uncertain), relative expression): 0.56
